Laboratory results from patent US20240239759A1, “ISOXAZOLINE COMPOSITIONS AND THEIR USE AS ANTIPARASITICS” (Intervet Inc., priority 2007, published 2024).
Read-outs that look alike come from different tables or passages of the source.

Test system: cat fleas (Ctenocephalides felis)
Assay: Efficacy of various isoxazolines against cat fleas on mice (Example 3)
Format: in vivo
Conditions: Ctenocephalides felis, po, mice, oral 20 mg/kg, infested 1 hr after treatment, read-out: Flea inhibition relative to negative control
Description: In this experiment, mice were randomly assigned to a treatment group or a negative control (untreated) group. Each group consisted of three mice. The mice in the treatment groups were orally administered 20 mg/kg bodyweight of various isoxazolines dissolved in 7% DMF-premix and 93% purified water (aqua ad injectabilia). The application volume of these treatments was 0.01 mL/g bodyweight. One hour after treatment, each mouse was sedated and generally infested (whole body) with 30 vital, adult fleas (C. felis). To achieve this, the sedated mice were placed into an infestation-jar, and the fleas were placed directly onto the fur. After approximately 30 minutes of feeding, fleas were recovered from the mice. Assessments for inhibition and mortality were conducted 1 hr, 24 hr, and 48 hr after each infestation. The efficacy was calculated as the percentage of inhibited fleas in the treatment groups relative to the negative control group.

Cc1cc(C2=NOC(c3cc(Cl)cc(Cl)c3)(C(F)(F)F)C2)ccc1C(=O)NCC(=O)NCC(F)(F)F (racemic) [Compound 11-1, 4-[5-(3,5-dichlorophenyl)-5-trifluoromethyl-4,5-dihydroisoxazol-3-yl]-2-methyl-N-[(2,2,2-trifluoro-ethylcarbamoyl)-methyl]-benzamide]
pest or weed control at 20 mg/kg (1 h, 1 hr after infestation): 78.9% | pest or weed control at 20 mg/kg (24 h, 24 hr after infestation): 96.7% | pest or weed control at 20 mg/kg (48 h, 48 hr after infestation): 97.8%
